Results as given in PMC6212778, “Site-specific amino acid substitution in dodecameric peptides determines the stability and unfolding of c-MYC quadruplex promoting apoptosis in cancer cells” (Nucleic Acids Research, 2018).

Key:
[1] = tested on: c-MYC promoter (Pu27-GQ) in MCF-7 cells; test: Dual-luciferase assay, c-MYC promoter with Pu27-GQ; type: cell-based, human; settings: for c-MYC promoter activity, fold repression: MCF-7, 24 h peptide treatment, 60 μM, Renilla/firefly normalised; for c-MYC promoter activity: MCF-7, 24 h, peptide 0–60 μM
Description: (§1) MCF-7 cells are sub-cultured into 24-well microtiter plates at a cell density of 1 × 10^5 cells/well. Reporter constructs (c-MYC, BCL-2, KRAS and VEGF-A) (500 ng) with and/or without the G-quadruplex scaffolds triggering the expression of Renilla luciferase are co-transfected with 50 ng of pGL3-control vectors (Promega) (used as internal control), encoding firefly luciferase into MCF-7 cells using Lipofectamine® 3000 transfection reagent (Thermo-Fisher Scientific) following manufacturer's recommendations (Supplementary information Section 1). Twenty four hours post-transfection, cells are treated with peptides (FK13, KR12A, KR12B, KR12C, KR12D and KR12E) at an increasing concentration gradient.
(§2) Dual-luciferase assays are performed to examine the intracellular selectivity of peptides for c-MYC quadruplex isomers (Pu27, Myc22 and Pu19) over other oncogenic quadruplexes (BCL-2, VEGF-A and KRAS) of different topologies. The role of peptide-quadruplex complex in oncogene promoter activation is investigated in contrast to the GQ-null promoter constructs into MCF-7 cells ([67]). After 24 h of peptide treatment, cells are washed and lysed into 100 μl 1× Passive lysis buffer (PLB) for 15 min at room temperature. Renilla and firefly Luciferase activities in 25 μl lysate are quantified by Dual-Luciferase® reporter assay system (Promega) as per manufacturer's recommendations. Renilla luciferase enzyme activity is normalized to that of the firefly luciferase activity and luminescence of the peptide-treated samples are normalized to the untreated ones, which yield the fold induction values for Renilla activities by different quadruplex structures in presence and absence of synthetic peptides. Luminescence of each sample is detected in GloMax® 20/20 Single-Tube Luminometer (Promega) in triplicates and averaged from three independent experiments.

[2] = tested on: BCL-2 promoter (BCL-2-GQ) in MCF-7 cells; test: Dual-luciferase assay, BCL-2 promoter with BCL-2-GQ; type: cell-based, human; settings: MCF-7, 24 h, peptide 0–60 μM
Description: as §1, §2

[3] = tested on: c-MYC promoter with Myc22 isomer in MCF-7 cells; test: Dual-luciferase assay, c-MYC promoter under control of Myc22; type: cell-based, human; settings: MCF-7, 24 h peptide treatment
Description: as §1, §2

[4] = tested on: c-MYC promoter with Pu19 isomer in MCF-7 cells; test: Dual-luciferase assay, c-MYC promoter under control of Pu19; type: cell-based, human; settings: MCF-7, 24 h peptide treatment
Description: as §1, §2

[5] = tested on: Sp1 at c-MYC-NHE III1 in MCF-7 cells; test: ChIP, Sp1 occupancy at c-MYC-NHE III1; type: cell-based, human; settings: MCF-7, 24 h, ChIP-qPCR versus IgG control
Description: (§3) Chromatin immunoprecipitation studies are conducted to monitor the promoter occupancies of different transcription factors (Sp1, NM23-H2 and Nucleolin) and RNA polymerase II (RNAPII) on the region encompassing c-MYC-NHE III1 ([69]). We have grown MCF-7 cells in 10-cm^2 culture flask at a density of 1 × 10^6 cells per well and treated with the synthetic peptides (FK13, KR12A, KR12B, and KR12C) for 24 hours. Cells are cross-linked with 1% formaldehyde at room temperature for 10 min and the reaction is stopped by 0.125 M glycine at room temperature for 10 min. Fixed cells are lysed and sonicated to yield DNA fragments of 200–500 bp. ChIP-grade antibodies (NM23-H2 (L-15) Antibody (sc-14790, Santa Cruz), and Anti-Nucleolin antibody [4E2]-ChIP Grade (Abcam)), Anti Sp1 antibody (Sigma), and Rpb1 (RNAPII subunit b1) CTD (C-terminal domain) 4H8 antibody are added to the sonicated chromatin and incubated overnight at 4°C. Then, 10 μl protein A magnetic beads (Dynal, Invitrogen), previously washed in RIPA buffer are added to the samples and bead–protein complexes are washed thrice with RIPA buffer and twice with TE buffer. The genomic DNA is eluted for 2 h at 68°C in complete elution Buffer (20 mM Tris, pH 7.5, 5 mM EDTA, 50 mM NaCl, 1% SDS and 50 μg/ml proteinase K) and further combined with the DNA eluted from second elution for 10 min at 68°C in 100 μl of elution buffer (20 mM Tris, pH 7.5, 5 mM EDTA and 50 mM NaCl). ChIP-isolated DNA is purified using MinElute Purification kit (Qiagen) and is amplified by PCR (Polymerase Chain Reaction) reactions using forward and reverse primers ([70]) (Supplementary Table S4) specific to the quadruplex-enriched regions at c-MYC promoter and Phusion® High-Fidelity PCR Kit (NEB). Anti-rabbit IgG is employed for mock immunoprecipitation (Negative control).

[6] = tested on: NM23-H2 at c-MYC-NHE III1 in MCF-7 cells; test: ChIP, NM23-H2 occupancy at c-MYC-NHE III1; type: cell-based, human; settings: MCF-7, 24 h, ChIP-qPCR versus IgG control
Description: as §3

[7] = tested on: Nucleolin at c-MYC-NHE III1 in MCF-7 cells; test: ChIP, Nucleolin occupancy at c-MYC-NHE III1; type: cell-based, human; settings: MCF-7, 24 h, ChIP-qPCR versus IgG control
Description: as §3

c-MYC quadruplex Pu27 = test: CD melting of free and peptide-bound Pu27; type: binding, human
Description: To understand the role of peptides (FK13, KR12A, KR12B, KR12C, KR12D and KR12E) in stabilizing native and truncated isomers of c-MYC G-quadruplex, we have performed temperature-driven CD melting experiments for free and peptide-bound complexes in JASCO-J815 CD spectrometer. We have gradually titrated the peptides into 10 μM of putative quadruplexes and acquired the spectra after 5 min of peptide addition to allow complex formation and equilibration. Samples are heated from 20 to 95°C having the temperature gradient and the delay time of 2.5°C/min and 150 s respectively. Since the quadruplexes unfold at higher temperatures and revert back to their initial conformations upon renaturation, we have assumed a ‘two-state transition’ model (folded and unfolded) to analyze the melting curves and estimated the melting temperatures (Tm) by fitting the data points into sigmoidal curves (Supplementary information Section 1).

[8] = tested on: KRAS promoter (KRAS-GQ) in MCF-7 cells; test: Dual-luciferase assay, KRAS promoter with KRAS-GQ; type: cell-based, human; settings: MCF-7, 24 h; for KRAS promoter activity: peptide 0–60 μM
Description: as §1, §2

[9] = 10 μM quadruplex, two-state model

Row | rise in the Tm of Pu27 upon peptide binding (c-MYC quadruplex Pu27; [9]) | decrease of the Tm of Pu27 upon peptide binding (c-MYC quadruplex Pu27; [9]) | Substance | c-MYC promoter activity, fold repression [1] | BCL-2 promoter activity [2] | c-MYC promoter activation under control of Myc22 [3] | c-MYC promoter activation under control of Pu19 [4] | Sp1 occupancy at c-MYC-NHE III1 [5] | NM23-H2 occupancy at c-MYC-NHE III1 [6] | Nucleolin occupancy at c-MYC-NHE III1 [7] | c-MYC promoter activity [1] | KRAS promoter activity [8] | c-MYC promoter attrition in presence of Myc22, fold [3] | c-MYC promoter attrition in presence of Pu19, fold [4] | effect on thermal stability of Pu27 (c-MYC quadruplex Pu27) | KRAS promoter activity, fold inhibition ([8]; at higher concentration)
1 |  |  | N – FKRIVQRIKDFLR – C [FK13] | ~2 fold | significantly downregulate | attenuated | attenuated | no role | no role | no role |  |  |  |  |  | 
2 | 9 °C |  | N – KRIVKLIKKWLR – C [KR12C] |  | no significant impact |  |  | depleted | depleted | depleted | selectively attenuated | no significant impact | ~5 fold | ~5 fold |  | 
3 |  |  | N – KRIVKRIKKWLR – C [KR12B, dodecameric mutant peptide derived from FK13 / LL37] |  | inverse regulation |  | weaker | no role in Sp1 occupancy | depleted the abundance | depleted the abundance | selectively attenuated | inverse regulation |  |  | did not significantly induce thermal stability | 
4 |  | ~30 °C | N – KRIVQRIKKWLR – C [KR12A, dodecameric mutant peptide derived from FK13 / LL37] | ~2 fold | significantly downregulate | attenuated | attenuated | slightly enriched | slightly enriched | did not significantly affect |  |  |  |  |  | ~2.5 fold
